CC(C)(C)C(O)(CCc1ccc(Cl)cc1)Cn1cncn1 (stereo not given)
solubility (mole fraction)
Conditions	in 2-butanone	in acetone	in acetonitrile	in ethanol	in ethyl acetate	in isopropanol	in methanol	in n-propanol	in toluene
278.15 K	0.0404	0.0304	0.00516	0.0103	0.0244	0.00877	0.0154	0.00704	0.0217
280.65 K	0.0439	0.0336	0.00585	0.0118	0.027	0.0103	0.0174	0.00825	0.0244
283.15 K	0.0476	0.038	0.00662	0.0136	0.03	0.012	0.0196	0.00953	0.0276
285.65 K	0.0524	0.0416	0.00746	0.0157	0.0336	0.0138	0.0225	0.0112	0.0311
288.15 K	0.0569	0.0461	0.00838	0.0179	0.0377	0.0159	0.0253	0.0133	0.0354
290.65 K	0.0612	0.0507	0.00942	0.0203	0.0421	0.018	0.0284	0.0153	0.0404
293.15 K	0.0659	0.0562	0.0107	0.0234	0.0466	0.0204	0.032	0.0175	0.0453
295.65 K	0.0709	0.0613	0.012	0.0264	0.0512	0.023	0.0359	0.0201	0.0512
298.15 K	0.076	0.0668	0.0134	0.0299	0.0564	0.026	0.04	0.0227	0.0578
300.65 K	0.0815	0.0723	0.0149	0.0333	0.0612	0.0293	0.0444	0.0258	0.0644
303.15 K	0.0869	0.0789	0.0165	0.037	0.0668	0.0328	0.0497	0.0296	0.0712
305.65 K	0.0928	0.0851	0.0186	0.0411	0.0734	0.0367	0.0551	0.0338	0.079
308.15 K	0.0987	0.0925	0.0208	0.0463	0.0797	0.0416	0.06	0.0388	0.0873
310.65 K	0.106	0.101	0.0233	0.0515	0.0867	0.0462	0.0659	0.0444	0.0964
313.15 K	0.113	0.11	0.0261	0.0572	0.0945	0.0519	0.0724	0.0498	0.105

— BigSolDB 2.1
